ChEMBL document CHEMBL1681753, “Discovery of new inhibitor for PDE3 by virtual screening” (Bioorg Med Chem Lett, 2011)
Calls of active or inactive are those of the source. No cut-off for these calls is given here.

How the values were obtained:
C3H 10T1/2 [1] = experiment: Induction of lipolysis in mouse C3H10T1/2 assessed as glycerol concentration at 10 uM relative to control; type: functional
Adipocyte = experiment: Induction of lipolysis in human Adipocyte assessed as glycerol concentration at 10 uM relative to control; type: functional
C3H 10T1/2 [2] = experiment: Induction of lipolysis in mouse C3H10T1/2 assessed as glycerol concentration; type: functional, cell-based
[3] = target: cGMP-inhibited 3',5'-cyclic phosphodiesterase 3B (Homo sapiens, UniProt Q13370); experiment: Inhibition of human recombinant PDE3B
Chain of cGMP-inhibited 3',5'-cyclic phosphodiesterase 3B (Q13370 whole entry): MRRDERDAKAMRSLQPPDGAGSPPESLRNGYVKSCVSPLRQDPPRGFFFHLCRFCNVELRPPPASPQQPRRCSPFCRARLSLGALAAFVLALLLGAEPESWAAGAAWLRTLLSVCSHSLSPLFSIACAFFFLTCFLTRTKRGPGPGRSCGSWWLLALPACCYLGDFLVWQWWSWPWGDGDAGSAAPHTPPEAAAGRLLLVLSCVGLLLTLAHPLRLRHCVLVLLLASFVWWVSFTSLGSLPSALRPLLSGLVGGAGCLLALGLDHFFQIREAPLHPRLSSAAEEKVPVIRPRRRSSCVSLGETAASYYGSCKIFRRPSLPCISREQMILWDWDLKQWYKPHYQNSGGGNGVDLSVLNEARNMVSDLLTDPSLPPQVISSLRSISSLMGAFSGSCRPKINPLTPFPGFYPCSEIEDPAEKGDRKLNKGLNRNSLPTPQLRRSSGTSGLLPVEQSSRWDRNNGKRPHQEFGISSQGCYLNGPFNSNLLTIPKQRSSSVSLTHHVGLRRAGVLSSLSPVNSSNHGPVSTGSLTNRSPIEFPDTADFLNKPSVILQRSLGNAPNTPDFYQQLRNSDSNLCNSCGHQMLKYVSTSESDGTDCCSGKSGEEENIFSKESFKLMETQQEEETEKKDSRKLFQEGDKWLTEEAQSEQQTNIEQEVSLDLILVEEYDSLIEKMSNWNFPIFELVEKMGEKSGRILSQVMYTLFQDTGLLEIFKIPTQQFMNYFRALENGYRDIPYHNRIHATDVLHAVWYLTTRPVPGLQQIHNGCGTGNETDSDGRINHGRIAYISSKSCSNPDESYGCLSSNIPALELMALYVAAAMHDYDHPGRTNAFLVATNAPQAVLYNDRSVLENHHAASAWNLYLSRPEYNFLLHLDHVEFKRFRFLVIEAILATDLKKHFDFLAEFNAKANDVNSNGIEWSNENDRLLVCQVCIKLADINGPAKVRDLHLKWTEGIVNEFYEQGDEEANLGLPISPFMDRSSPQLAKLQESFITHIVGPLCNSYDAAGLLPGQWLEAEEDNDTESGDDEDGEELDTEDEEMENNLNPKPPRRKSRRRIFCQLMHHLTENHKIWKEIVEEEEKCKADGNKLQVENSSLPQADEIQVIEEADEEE

3T3-L1 [4] = experiment: Effect on adipogenesis in mouse 3T3L1 cells assessed as cellular lipid content by Oil red O staining; type: functional, cell-based
3T3-L1 [5] = experiment: Effect on adipogenesis in mouse 3T3L1 cells assessed as adiponectin mRNA expression by RT-PCR method; type: functional, cell-based
3T3-L1 [6] = experiment: Effect on adipogenesis in mouse 3T3L1 cells assessed as PPARgamma mRNA expression by RT-PCR method; type: functional, cell-based
3T3-L1 [7] = experiment: Effect on adipogenesis in mouse 3T3L1 cells assessed as FABP4 mRNA expression by RT-PCR method; type: functional, cell-based
3T3-L1 [8] = experiment: Effect on adipogenesis in mouse 3T3L1 cells assessed as G3PD mRNA expression by RT-PCR method; type: functional, cell-based
[9] = target: cGMP-inhibited 3',5'-cyclic phosphodiesterase 3A (Homo sapiens, UniProt Q14432); experiment: Inhibition of human recombinant PDE3A
Chain of cGMP-inhibited 3',5'-cyclic phosphodiesterase 3A (Q14432 whole entry): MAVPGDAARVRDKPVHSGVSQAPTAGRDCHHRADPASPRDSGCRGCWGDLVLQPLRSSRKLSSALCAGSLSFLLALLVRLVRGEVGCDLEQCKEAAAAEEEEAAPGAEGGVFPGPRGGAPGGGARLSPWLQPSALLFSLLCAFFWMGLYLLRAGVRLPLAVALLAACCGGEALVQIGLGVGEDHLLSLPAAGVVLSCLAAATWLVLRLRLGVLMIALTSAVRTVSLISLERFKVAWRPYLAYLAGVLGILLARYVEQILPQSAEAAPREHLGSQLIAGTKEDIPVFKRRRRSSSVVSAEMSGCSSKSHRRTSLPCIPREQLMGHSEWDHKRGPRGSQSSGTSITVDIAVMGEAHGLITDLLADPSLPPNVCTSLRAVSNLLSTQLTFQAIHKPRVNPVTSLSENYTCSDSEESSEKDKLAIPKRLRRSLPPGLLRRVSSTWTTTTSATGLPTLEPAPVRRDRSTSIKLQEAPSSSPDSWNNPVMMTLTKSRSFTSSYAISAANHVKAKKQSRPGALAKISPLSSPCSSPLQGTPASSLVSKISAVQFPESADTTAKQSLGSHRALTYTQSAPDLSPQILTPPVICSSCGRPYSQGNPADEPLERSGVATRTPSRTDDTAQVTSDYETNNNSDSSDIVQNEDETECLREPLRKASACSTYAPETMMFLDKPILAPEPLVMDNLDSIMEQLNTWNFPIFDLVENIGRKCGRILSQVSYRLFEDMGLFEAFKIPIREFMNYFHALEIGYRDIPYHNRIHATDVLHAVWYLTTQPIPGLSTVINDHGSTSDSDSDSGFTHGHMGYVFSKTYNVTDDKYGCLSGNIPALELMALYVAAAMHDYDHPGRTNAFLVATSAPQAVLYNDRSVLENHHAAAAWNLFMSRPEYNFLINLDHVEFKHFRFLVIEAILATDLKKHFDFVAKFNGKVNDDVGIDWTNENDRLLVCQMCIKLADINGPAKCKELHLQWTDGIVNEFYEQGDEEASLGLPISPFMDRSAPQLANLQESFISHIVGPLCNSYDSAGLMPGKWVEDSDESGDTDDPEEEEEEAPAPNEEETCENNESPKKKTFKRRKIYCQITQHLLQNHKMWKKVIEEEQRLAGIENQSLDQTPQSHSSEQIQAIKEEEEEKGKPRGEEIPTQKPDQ

SMILES | EC50 (C3H 10T1/2 [2]) [nM] | IC50 [3] [nM] | IC50 [9] [nM] | Activity (C3H 10T1/2 [1]) [%] | Activity (Adipocyte) [%] | Activity (3T3-L1 [4]) | Activity (3T3-L1 [5]) | Activity (3T3-L1 [6]) | Activity (3T3-L1 [7]) | Activity (3T3-L1 [8])
Cc1ccc(S(=O)(=O)N/N=C2\CC(C)(C)Oc3ccc([N+](=O)[O-])cc32)cc1 | 5.2 |  |  | 168.4 | 116.67 |  |  |  |  | 
CC(C)NCC(O)c1ccc(O)c(O)c1 (stereo not given) [ISOPROTERENOL] | 19 |  |  | 291.3 | 214.39 |  |  |  |  | 
CCCC(NS(=O)(=O)c1ccc2c(c1)CCCC(=O)N2)c1cccs1 (stereo not given) |  |  |  | 131.9 | 130.2 |  |  |  |  | 

Further lines, with some results ahead:

EC50 (C3H 10T1/2 [2]) [nM] | IC50 [3] [nM] | IC50 [9] [nM] | SMILES | Activity (C3H 10T1/2 [1]) [%] | Activity (Adipocyte) [%] | Activity (3T3-L1 [4]) | Activity (3T3-L1 [5]) | Activity (3T3-L1 [6]) | Activity (3T3-L1 [7]) | Activity (3T3-L1 [8])
9.1 | 69.1 |  | CN(C(=O)CCCOc1ccc2[nH]c(=O)ccc2c1)C1CCCCC1 [CILOSTAMIDE] | 247.36 | 192.4 | Active | Active | Active | Active | Active
6.8 |  |  | CC1=NN(S(=O)(=O)c2ccc(C)cc2)C(O)(C(F)(F)F)C1 (stereo not given) | 171.3 | 116.67 |  |  |  |  | 
8.9 | 88.4 | 14.8 | C/C(=N\NS(=O)(=O)c1ccc(C)cc1)c1ccc2c(c1)C(C)(C)C(=O)N2 | 191.7 | 171.5 | Active | Active | Active | Active | Active
